From patent US9592223B2, “Small molecule inhibitors of MALT1” (Cornell University, priority 2012, dated 2017)

Tests used:
[1] = system: cell cycle; test: BrdU incorporation - DAPI staining cell cycle flow cytometry; type: cell-based; conditions: increasing concentrations
Protocol: (§1) Cell proliferation was examined using the CFSE dilution assay by flow cytometry on viable cells at 48, 72 and 96 h. […] Trypan blue exclusion and apoptosis assessed by Annexin V^+ DAPI^− flow cytometry was measured every 48 hr for a period of 14 days.
To determine cell-cycle distribution, cells were analyzed by flow cytometry using pulse-BrdU (bromodeoxyuridine) incorporation with the APC BrdU Flow Kit (BD Pharmingen, San Jose, Calif.).

[2] = system: OCI-Ly1 cells; test: Trypan blue exclusion and Annexin V+ DAPI- apoptosis over 14 days, control line; type: cell-based, human; conditions: treated daily at the higher doses used for TMD8, 14 days
Protocol: as §1
Apoptosis was assessed by AnnexinV-APC/DAPI (BD Pharmingen) staining followed by flow cytometry.

[3] = Toxicity 1: increasing daily IP doses over 10 days; type: in vivo, C57BL/6 mice; conditions: daily IP 0.05 to 25 mg/kg over 10 days, cumulative 51.1 mg/kg
Source text: Brain, heart, lung, liver, kidney, bowel, spleen, thymus and bone marrow tissues were examined. […] Myeloid to erythroid ratio was 4-5:1. Megakaryocytes were normal in number and distribution. There was no fibrosis nor increased number of blasts or lymphocytes. Complete peripheral blood counts, biochemistry and liver function tests were normal (Table 2).

[4] = system: primary human GCB DLBCL cells; test: Primary human DLBCL cells ex vivo, GCB cases, Trypan blue; type: cell-based; conditions: 0.8 μM, 48 hr
Protocol: After 48 hr exposure, cell number and viability were determined using Trypan blue.
Patient de-identified tissues were obtained in accordance with the guidelines and approval of the Weill Cornell Medical College Review Board. Patient samples were processed as previously described (Cerchietti et al., 2010). Briefly, single cell suspensions from lymph node biopsies were obtained by physical disruption of tissues followed by cell density gradient separation (Fico/Lite LymphoH, Atlanta Biologicals, Lawrenceville, Ga.). Cell number and viability were determined by Trypan blue exclusion. Primary DLBCL cells were cultured in 96-well plates. Cells were grown in advanced RPMI medium with 20% FBS supplemented with antibiotics for 48 hours. […] After 48 hr of exposure, viability was determined by using Trypan blue (Sigma). All samples were normalized to their own replicate control. Statistical significance was calculated using paired T-test.

[5] = target: Caspase-8 (Homo sapiens, UniProt Q14790); test: Caspase selectivity; type: biochemical
Sequence of Caspase-8 (Q14790 217-374 limits assumed): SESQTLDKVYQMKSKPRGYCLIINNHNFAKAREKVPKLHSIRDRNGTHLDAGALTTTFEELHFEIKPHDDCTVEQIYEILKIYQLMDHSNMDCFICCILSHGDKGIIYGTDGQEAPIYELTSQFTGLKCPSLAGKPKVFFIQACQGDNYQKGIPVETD
Sequence of Caspase-8 (Q14790 385-479 limits assumed): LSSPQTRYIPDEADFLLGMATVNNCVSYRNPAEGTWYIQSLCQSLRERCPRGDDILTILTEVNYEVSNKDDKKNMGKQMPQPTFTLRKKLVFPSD

[6] = system: NF-κB reporter activity; test: NF-κB reporter assay in HBL-1 cells; type: cell-based, human
Source text: Antigen receptor-mediated NF-κB signaling partly depends on MALT1 activity (Ruefli-Brasse et al., 2003; Ruland et al., 2003). […] First, 293T cells were transfected with the NF-κB reporter vector (NF-κB)5-luc2CP-pGL4 (harboring 5 copies of the NF-κB consensus response element and a destabilized Firefly luciferase) and TK-pRL control together with plasmids expressing BCL10 and either MALT1^WT or MALT1^C464A. […] HBL-1 was transfected with the reporter construct (NF-κB)5-luc2CP-pGL4 and TK-pRL control.
Reporter assays were performed in 293T cells seeded at a density of 2×10^5 cells per well of a 12-well dish. 100 ng of (NF-κB)5-Luc2CP-pGL4 and 10 ng of TK-Renilla internal control plasmid were cotransfected along with 25 ng of the indicated plasmids (MIGR1-MALT1^WT or MIGR1-MALT1^C464A and pcDNA4-Flag-Bcl10) using Lipofectamine 2000 (Invitrogen). Lysates were submitted to dual luciferase assays following manufacturer's protocol (Promega). In HBL-1, 5 μg of (NF-κB)5-Luc2CP-pGL4 and 50 ng of TK-Renilla internal control plasmid per 5×10^6 cells were cotransfected using nucleofection (Amaxa, Lonza, Basel, Switzerland). Forty-eight hours after transfection, cells were plated at a density of 5×10^4 cells per well of a 24-well plate and treated as indicated. Lysates were submitted to dual luciferase assays following manufacturer's protocol (Promega).

## COCCOc1nc(-c2ccc(Cl)c(Cl)c2)n(-c2ccc(NC(=O)CCl)cc2)n1 [MI-2]
[1]
  cell cycle distribution: dose-dependent decrease in S phase
[2]
  viability and apoptosis: no effect
[3]
  physical indicators of sickness: no evidence of lethargy, weight loss
[4]
  response of cell number and viability: none of the GCBs did
[5]
  activity against Caspase-8: little activity
[6]; HBL-1, 8 hr
  reduction in NF-κB reporter activity: 20%
[6]; HBL-1, 24 hr
  reduction in NF-κB reporter activity: 50%
